Tests used:
Assay type in all cases: in vivo
[1] = tested on: Amaranthus retoflexus (AMARE); experiment: Pre-emergence Test (glasshouse, percentage damage to the plant); settings: 1000 g/ha unless otherwise stated; for percentage damage to the plant, AMARE (five-point scale): Amaranthus retoflexus; for percentage damage to the plant, AMARE: five-point scale
Zea mays (ZEAMX) [2] = experiment: as above; settings: 1000 g/ha unless otherwise stated; for percentage damage to the plant, ZEAMX (five-point scale): Zea mays; for percentage damage to the plant, ZEAMX: five-point scale
Setaria faberi (SETFA) [3] = experiment: as above; settings: 1000 g/ha unless otherwise stated; for percentage damage to the plant, SETFA (five-point scale): Setaria faberi; for percentage damage to the plant, SETFA: five-point scale
Zea mays (ZEAMX) [4] = experiment: Post-emergence Test (glasshouse, percentage damage to the plant); settings: 1000 g/ha unless otherwise stated, evaluated after 13 days; for ZEAMX, percentage damage caused to the plant (five-point scale): post-emergence; for Post-emergence Test ZEAMX, percentage damage to the plant (five-point scale): post-emergence spray
Method in brief: (§1)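 Percentage damage to the plant, assessed 13 days after application and scored 1–5 in 20% bands. Pots sown in standard soil received compound at 1000 g/ha unless otherwise stated, sprayed under 24/16 °C, 14 h light, 65% humidity.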

[5] = tested on: Ipomoea hederacea (IPOHE); experiment: as above; settings: 1000 g/ha unless otherwise stated, evaluated after 13 days; for IPOHE, percentage damage caused to the plant (five-point scale): post-emergence; for Post-emergence Test IPOHE, percentage damage to the plant (five-point scale): post-emergence spray
Method in brief: as §1

[6] = tested on: Amaranthus palmeri (AMAPA); experiment: as above; settings: post-emergence; 1000 g/ha unless otherwise stated; evaluated after 13 days
Method in brief: (§2)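 Seeds sown in pots in glasshouse (24/16 °C day/night, 14 h light, 65% humidity), then sprayed with compound at 1000 g/ha unless stated, from acetone/water 50:50 with 0.5% Tween 20. Damage assessed 13 days later on five-point scale (1=0–20% to 5=81–100%).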

Setaria faberi (SETFA) [7] = experiment: as above; settings: 1000 g/ha unless otherwise stated, evaluated after 13 days; for SETFA, percentage damage caused to the plant (five-point scale): post-emergence; for Post-emergence Test SETFA, percentage damage to the plant (five-point scale): post-emergence spray
Method in brief: as §1

[8] = tested on: Amaranthus retoflexus (AMARE); experiment: as above; settings: 1000 g/ha unless otherwise stated, evaluated after 13 days; for AMARE, percentage damage caused to the plant (five-point scale): post-emergence; for Post-emergence Test AMARE, percentage damage to the plant (five-point scale): post-emergence spray
Method in brief: as §2

[9] = tested on: Ipomoea hederacea (IPOHE); experiment: Pre-emergence Test (glasshouse, percentage damage to the plant); settings: 1000 g/ha unless otherwise stated; for percentage damage to the plant, IPOHE (five-point scale): Ipomoea hederacea; for percentage damage to the plant, IPOHE: five-point scale
[10] = tested on: Amaranthus palmeri (AMAPA); experiment: as above; settings: 1000 g/ha unless otherwise stated, Amaranthus palmeri
[11] = tested on: Echinochloa crus-galli (ECHCG); experiment: as above; settings: 1000 g/ha unless otherwise stated; for percentage damage to the plant, ECHCG (five-point scale): Echinochloa crus-galli; for percentage damage to the plant, ECHCG: five-point scale
[12] = tested on: Echinochloa crus-galli (ECHCG); experiment: Post-emergence Test (glasshouse, percentage damage to the plant); settings: post-emergence spray, 1000 g/ha unless otherwise stated, evaluated after 13 days
Method in brief: as §2

[13] = tested on: Abutilon theophrasti (ABUTH); experiment: as above; settings: post-emergence spray, 1000 g/ha unless otherwise stated, evaluated after 13 days
Method in brief: as §2

[14] = tested on: Abutilon theophrasti (ABUTH); experiment: Pre-emergence Test (glasshouse, percentage damage to the plant); settings: 1000 g/ha unless otherwise stated, five-point scale

Structure (SMILES) | percentage damage to the plant, AMARE [1] | percentage damage to the plant, ZEAMX (Zea mays (ZEAMX) [2]) | percentage damage to the plant, SETFA (Setaria faberi (SETFA) [3]) | Post-emergence Test ZEAMX, percentage damage to the plant (five-point scale) (Zea mays (ZEAMX) [4]) | Post-emergence Test IPOHE, percentage damage to the plant (five-point scale) [5] | Post-emergence Test ECHCG, percentage damage to the plant (five-point scale) [12] | Post-emergence Test SETFA, percentage damage to the plant (five-point scale) (Setaria faberi (SETFA) [7]) | Post-emergence Test ABUTH, percentage damage to the plant (five-point scale) [13] | Post-emergence Test AMARE, percentage damage to the plant (five-point scale) [8] | percentage damage to the plant, IPOHE [9] | percentage damage to the plant, ECHCG [11] | percentage damage to the plant, ABUTH [14] | also measured
CCn1c(C)c(-c2cc(F)ccc2OC)c(=O)c(C(=O)O)c1-c1ccc(Cl)c(Cl)c1 [Compound 235, 2-(3,4-dichlorophenyl)-1-ethyl-5-(5-fluoro-2-methoxy-phenyl)-6-methyl-4-oxo-pyridine-3-carboxylic acid] | – | – | – | – | – | – | – | – | – | – | – | – | percentage damage to the plant, AMARE (five-point scale) [1]: 0; percentage damage to the plant, ZEAMX (five-point scale) (Zea mays (ZEAMX) [2]): 0; percentage damage to the plant, SETFA (five-point scale) (Setaria faberi (SETFA) [3]): 0; ZEAMX, percentage damage caused to the plant (five-point scale) (Zea mays (ZEAMX) [4]): 1 (1=0-20%); IPOHE, percentage damage caused to the plant (five-point scale) [5]: 3 (3=41-60%); AMAPA, percentage damage caused to the plant (five-point scale) [6]: 4 (4=61-80%); SETFA, percentage damage caused to the plant (five-point scale) (Setaria faberi (SETFA) [7]): 2 (2=21-40%); AMARE, percentage damage caused to the plant (five-point scale) [8]: 3 (3=41-60%); percentage damage to the plant, IPOHE (five-point scale) [9]: 0; percentage damage to the plant, AMAPA (five-point scale) [10]: 3 (3=41-60%); percentage damage to the plant, ECHCG (five-point scale) [11]: 0
CCn1c(C)c(-c2ccc(F)c(OC)c2F)c(=O)c(C(=O)O)c1-c1ccc(Cl)c(Cl)c1 [Compound 234, 2-(3,4-dichlorophenyl)-5-(2,4-difluoro-3-methoxy-phenyl)-1-ethyl-6-methyl-4-oxo-pyridine-3-carboxylic acid] | – | – | – | – | – | – | – | – | – | – | – | – | percentage damage to the plant, AMARE (five-point scale) [1]: 2 (2=21-40%); percentage damage to the plant, ZEAMX (five-point scale) (Zea mays (ZEAMX) [2]): 2 (2=21-40%); percentage damage to the plant, SETFA (five-point scale) (Setaria faberi (SETFA) [3]): 5 (5=81-100%); ZEAMX, percentage damage caused to the plant (five-point scale) (Zea mays (ZEAMX) [4]): 3 (3=41-60%); IPOHE, percentage damage caused to the plant (five-point scale) [5]: 4 (4=61-80%); AMAPA, percentage damage caused to the plant (five-point scale) [6]: 5 (5=81-100%); SETFA, percentage damage caused to the plant (five-point scale) (Setaria faberi (SETFA) [7]): 4 (4=61-80%); AMARE, percentage damage caused to the plant (five-point scale) [8]: 4 (4=61-80%); percentage damage to the plant, IPOHE (five-point scale) [9]: 4 (4=61-80%); percentage damage to the plant, AMAPA (five-point scale) [10]: 3 (3=41-60%); percentage damage to the plant, ECHCG (five-point scale) [11]: 5 (5=81-100%)
CCn1c(C)c(-c2cc(F)cc(C#N)c2)c(=O)c(C(=O)O)c1-c1ccc(Cl)c(Cl)c1 [Compound 78, 5-(3-cyano-5-fluoro-phenyl)-2-(3,4-dichlorophenyl)-1-ethyl-6-methyl-4-oxo-pyridine-3-carboxylic acid] | 2 (2=21-40%) | 1 (1=0-20%) | 4 (4=61-80%) | 1 (1=0-20%) | 1 (1=0-20%) | 2 (2=21-40%) | 3 (3=41-60%) | 2 (2=21-40%) | 1 (1=0-20%) | 2 (2=21-40%) | 3 (3=41-60%) | 1 (1=0-20%) | –
CCn1c(C)c(-c2ccc(F)c(C#N)c2)c(=O)c(C(=O)O)c1-c1ccc(Cl)c(Cl)c1 [Compound 91, 5-(3-cyano-4-fluoro-phenyl)-2-(3,4-dichlorophenyl)-1-ethyl-6-methyl-4-oxo-pyridine-3-carboxylic acid] | 2 (2=21-40%) | 1 (1=0-20%) | 4 (4=61-80%) | 2 (2=21-40%) | 3 (3=41-60%) | 4 (4=61-80%) | 4 (4=61-80%) | 3 (3=41-60%) | 3 (3=41-60%) | 3 (3=41-60%) | 4 (4=61-80%) | 2 (2=21-40%) | –
CCOC(=O)c1c(-c2ccc(Br)c(F)c2)n(CC)c(C)c(-c2ccc(Cl)cc2)c1=O [Compound 139, ethyl 2-(4-bromo-3-fluoro-phenyl)-5-(4-chlorophenyl)-1-ethyl-6-methyl-4-oxo-pyridine-3-carboxylate] | 0 | 0 | 0 | 2 (2=21-40%) | 1 (1=0-20%) | 2 (2=21-40%) | 3 (3=41-60%) | 4 (4=61-80%) | 3 (3=41-60%) | 0 | 0 | 0 | –
CCOC(=O)c1c(-c2ccc(Br)cc2F)n(CC)c(C)c(-c2ccc(Cl)cc2)c1=O [Compound 137, ethyl 2-(4-bromo-2-fluoro-phenyl)-5-(4-chlorophenyl)-1-ethyl-6-methyl-4-oxo-pyridine-3-carboxylate] | 5 (5=81-100%) | 0 | 1 (1=0-20%) | 2 (2=21-40%) | 3 (3=41-60%) | 4 (4=61-80%) | 3 (3=41-60%) | 3 (3=41-60%) | 3 (3=41-60%) | 0 | 0 | 0 | –
CCn1c(C)c(-c2ccc(F)c(C#N)c2)c(=O)c(C(=O)O)c1-c1ccc(Cl)c(Cl)c1 [Compound 92, 5-(3-cyano-4-fluoro-phenyl)-2-(3,4-dichlorophenyl)-1-ethyl-6-methyl-4-oxo-pyridine-3-carboxylic acid] | 1 (1=0-20%) | 1 (1=0-20%) | 1 (1=0-20%) | 1 (1=0-20%) | 3 (3=41-60%) | 1 (1=0-20%) | 1 (1=0-20%) | 2 (2=21-40%) | 1 (1=0-20%) | 1 (1=0-20%) | 1 (1=0-20%) | 1 (1=0-20%) | –
CCn1c(C)c(-c2cncc(OC)c2)c(=O)c(C(=O)O)c1-c1ccc(Cl)c(Cl)c1 [Compound 61, 2-(3,4-dichlorophenyl)-1-ethyl-5-(5-methoxy-3-pyridyl)-6-methyl-4-oxo-pyridine-3-carboxylic acid] | 1 (1=0-20%) | 1 (1=0-20%) | 4 (4=61-80%) | 1 (1=0-20%) | 1 (1=0-20%) | 1 (1=0-20%) | 3 (3=41-60%) | 2 (2=21-40%) | 1 (1=0-20%) | 1 (1=0-20%) | 1 (1=0-20%) | 2 (2=21-40%) | –

— patent US12660819B2, “Herbicidal derivatives” (SYNGENTA CROP PROTECTION AG, priority 2020, dated 2026)
